Data as given in US20250270208A1, “BICYCLIC HETEROCYCLES AS MRGPRX2 ANTAGONISTS” (Incyte Corporation, priority 2023, published 2025).
pIC50: −log10 of the molar value.

Tests used:
MRGPRX2 [1] = molecular target: T1, MRGPRX2 (Homo sapiens, UniProt Q96LB1); experiment: MRGPRX2 IP1 HTRF assay; assay type: cell-based; set-up: host or cells: CHO-K1; conditions: CHO-K1 cells stably expressing human MRGPRX2; IP1 accumulation; agonist Cortistatin 14 1 μM
T1 sequence (Q96LB1 1-330): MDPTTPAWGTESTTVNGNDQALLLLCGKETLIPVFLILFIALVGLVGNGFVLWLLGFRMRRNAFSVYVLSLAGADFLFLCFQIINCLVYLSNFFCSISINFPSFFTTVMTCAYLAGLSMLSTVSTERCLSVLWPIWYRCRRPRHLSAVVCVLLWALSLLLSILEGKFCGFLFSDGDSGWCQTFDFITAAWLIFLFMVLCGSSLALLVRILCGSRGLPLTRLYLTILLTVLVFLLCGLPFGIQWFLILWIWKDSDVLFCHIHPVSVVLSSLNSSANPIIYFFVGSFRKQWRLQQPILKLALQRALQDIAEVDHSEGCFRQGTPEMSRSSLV
Procedure: This assay measures compound inhibition of myo-Inositol 1 phosphate (IP1) accumulation in CHO-K1 cells. Chinese hamster ovary (CHO-K1) cells stably expressing human MRGPRX2 were purchased from GenScript (Piscataway, NJ).
For the HTRF IP1 determination, an IP-One GqKit (Perkin Elmer Cisbio, Waltham, MA), which includes all reagents and buffers in this protocol, was used. The cells were maintained in culture medium (Ham's F-12K) containing 10% (v/v) FBS, and 200 μg/mL Zeocin. For the assay, the cells were harvested and resuspended in culture medium with 2% FBS and without Zeocin, then were passed through a 40 μm filter. Cells were added at 20000 cells in a 5 μL/well to a 384-well white small volume cell culture plate (Greiner VWR, Radnor, PA) which contained 50 nL/well of test compound serially diluted at a selected concentration range in DMSO. 5 μL/well of prepared 2× Stimulation Buffer 2 was then added to plates and was incubated at 37° C. with 5% CO2 for 1 h. 5 μL/well of agonist Cortistatin 14 (Bio-TechneR&D Systems, Minneapolis, MN) in 1× Stimulation Buffer 2, for a 1 μM final concentration, was then added to plates and incubated at 37° C. with 5% CO2 for 1 h. 6 μL/well of 1:20 diluted Detection Reagent Mix (d2 and Cryptate) was added to the plates and incubated for 1 h in the dark. Plates were read on the PHERAstar microplate reader (BMG Labtech Cary, NC) to determine the HTRF ratio of the acceptor and donor emission signals. The IP1 concentrations were calculated from a standard curve following the IP-One GQ kit instructions. Wells with DMSO only and wells with high concentration of reference antagonist were used as controls for normalization. Compound IC50 curves were globally fitted with 3- or 4-parameter Hill equation in a Genedata Screener (Genedata Basel, Switzerland).

MRGPRX2 [2] = molecular target: T1, MRGPRX2; experiment: MRGPRX2 FLIPR calcium mobilization assay; assay type: cell-based; set-up: host or cells: CHO-K1; conditions: CHO-K1 cells stably expressing human MRGPRX2; Ca2+ release; agonist Cortistatin-14 at EC80
Procedure: Chinese hamster ovary (CHO-K1) cells stably expressing human MRGPRX2 were purchased from Genescript (Piscataway, NJ). The cells were maintained in culture medium (Ham's F-12K) containing 10% (v/v) FBS, 200 μg/mL Zeocin, 100 units/mL penicillin G and 100 μg/mL streptomycin (Life Technologies, Carlsbad, CA). For the assay, the cells were harvested and resuspended with culture medium without Zeocin before plating at 8000 cells per well in 20 μL in 384-well black clear bottom cell culture plates (VWR, Radnor, PA). After 24 hour culture at 37° C. and 5% CO2, the cells were loaded with 20 μL/well of calcium dye (FLIPR Calcium 6 Assay Kit, Molecular Devices, San Jose, CA) diluted in loading buffer (1× Hank's Balanced Salt Solution (HBSS), 5 mM probenecid, 20 mM 4-(2-hydroxyethyl)-1-piperazineethanesulfonic acid (HEPES), pH 7.4, VWR, Radnor, PA) followed with 45 min incubation at 37° C. and 40 min. at r.t. in the dark. Cells were then treated with the addition of 10 uL/well test compounds with a range of increasing concentrations diluted in the assay buffer (1×HBSS, 20 mM HEPES, pH 7.4, VWR, Radnor, PA) with FLIPR Penta (Molecular Devices. San Jose, CA) and incubated for 30 min. at r.t. Ca^2+ release was measured with FLIPR Penta with 10 s basal fluorescence measurement, then 12.5 μL of 5× agonist Cortistatin-14 (Tocris, Minneapolis, MN) at final concentration corresponding to the EC80 were added followed with continued fluorescence signal monitoring for an additional 110 s. The base line adjusted (median of first 10 s base line) max value of the Relative Fluorescence Unit (RFU) was plotted against compound concentrations. Wells with no compound were served as the positive controls, and wells with high concentration of reference antagonist were used as negative controls. IC50 curves were globally fitted with 3- or 4-parameter Hill equation in a Genedata Screener (Genedata Basel, Switzerland).

Compound	pIC50 (MRGPRX2 [1])	pIC50 (MRGPRX2 [2])
Fc1ccc2nc(C(F)(F)F)cc(N[C@H]3CCC[C@@H](Nc4nccn5cncc45)C3)c2c1 [Example 28, (1S,3R)-N^1-(6-fluoro-2-(trifluoromethyl)quinolin-4-yl)-N^3-(imidazo[1,5-a]pyrazin-8-yl)cyclohexane-1,3-diamine]	7.00 to 10.00	7.00 to 10.00
FC(F)(F)c1cc(N[C@H]2CCC[C@@H](Nc3ccnc4ncccc34)C2)c2cc(Cl)ccc2n1 [Example 27, (1S,3R)-N^1-(6-Chloro-2-(trifluoromethyl)quinolin-4-yl)-N^3-(1,8-naphthyridin-4-yl)cyclohexane-1,3-diamine]	6.00 to 7.00	7.00 to 10.00
FC(F)(F)c1cc(N[C@H]2CCC[C@@H](Nc3nccc4cnccc34)C2)c2cc(Cl)ccc2n1 [Example 6, (1S,3R)-N^1-(6-Chloro-2-(trifluoromethyl)quinolin-4-yl)-N^3-(2,6-naphthyridin-1-yl)cyclohexane-1,3-diamine]	6.00 to 7.00	7.00 to 10.00
Cn1cnc2ccnc(N[C@H]3CC[C@@H](Nc4cc(C(F)(F)F)nc5ccc(Cl)cc45)CC3)c21 [Example 7, (1s,4s)-N^1-(6-Chloro-2-(trifluoromethyl)quinolin-4-yl)-N^4-(3-methyl-3H-imidazo[4,5-c]pyridin-4-yl)cyclohexane-1,4-diamine]	7.00 to 10.00	7.00 to 10.00
FC(F)(F)c1cc(N[C@H]2CCC[C@@H](Nc3nccn4cncc34)C2)c2cc(Br)ccc2n1 [Example 29, (1S,3R)-N^1-(6-bromo-2-(trifluoromethyl)quinolin-4-yl)-N^3-(imidazo[1,5-a]pyrazin-8-yl)cyclohexane-1,3-diamine]	7.00 to 10.00	7.00 to 10.00

The next lines start with the values.

pIC50 (MRGPRX2 [1])	pIC50 (MRGPRX2 [2])	Compound
6.00 to 7.00	7.00 to 10.00	FC(F)(F)c1cc(N[C@H]2CCC[C@@H](Nc3nnc4n3CCC4)C2)c2cc(Cl)ccc2n1 [Example 34, (1S,3R)-N^1-(6-Chloro-2-(trifluoromethyl)quinolin-4-yl)-N^3-(6,7-dihydro-5H-pyrrolo[2,1-c][1,2,4]triazol-3-yl)cyclohexane-1,3-diamine]
7.00 to 10.00	7.00 to 10.00	Cn1ncc2c(N[C@@H]3CCC[C@H](Nc4cc(C(F)(F)F)nc5ccc(Cl)cc45)C3)ncnc21 [Example 31]
7.00 to 10.00	7.00 to 10.00	Cn1cnc2ncnc(N[C@@H]3CCC[C@H](Nc4cc(C(F)(F)F)nc5ccc(Cl)cc45)C3)c21 [Example 8, (1S,3R)-N^1-(6-Chloro-2-(trifluoromethyl)quinolin-4-yl)-N^3-(7-methyl-7H-purin-6-yl)cyclohexane-1,3-diamine]
7.00 to 10.00	7.00 to 10.00	FC(F)(F)c1cc(N[C@H]2CCC[C@@H](Nc3nccn4nccc34)C2)c2cc(Cl)ccc2n1 [Example 30, (1S,3R)-N^1-(6-Chloro-2-(trifluoromethyl)quinolin-4-yl)-N^3-(pyrazolo[1,5-a]pyrazin-4-yl)cyclohexane-1,3-diamine]
6.00 to 7.00	6.00 to 7.00	FC(F)(F)c1cc(N[C@H]2CCC[C@@H](Nc3cc(N4CCOCC4)ccn3)C2)c2cc(Cl)ccc2n1 [Example 3, (1S,3R)-N^1-(6-Chloro-2-(trifluoromethyl)quinolin-4-yl)-N^3-(4-morpholinopyridin-2-yl)cyclohexane-1,3-diamine]
7.00 to 10.00	7.00 to 10.00	Cn1c(N[C@@H]2CCC[C@H](Nc3cc(C(F)(F)F)nc4ccc(Cl)cc34)C2)nc2cnccc21 [Example 32, (1S,3R)-N^1-(6-Chloro-2-(trifluoromethyl)quinolin-4-yl)-N^3-(1-methyl-1H-imidazo[4,5-c]pyridin-2-yl)cyclohexane-1,3-diamine]
6.00 to 7.00	7.00 to 10.00	FC(F)(F)c1cc(N[C@H]2CCC[C@@H](Nc3ccccn3)C2)c2cc(Cl)ccc2n1 [Example 12, (1S,3R)-N^1-(6-Chloro-2-(trifluoromethyl)quinolin-4-yl)-N^3-(pyridin-2-yl)cyclohexane-1,3-diamine]
